Reference: patent US6689806B1, “Indolinone compounds as kinase inhibitors” (Sugen, Inc., priority 1999, dated 2004)

Columns and labels:
PDGFR [1] = biological target: T1, PDGFR (Homo sapiens, UniProt P09619); experiment: Biochemical PDGFR assay (ELISA); set-up: expressed in transfected cells; host or cells: NIH 3T3; conditions: Table 7, in vitro kinase activity, read-out: PDGFr biochem IC50
Summary of the method: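 PDGFR-β from NIH 3T3 cell lysate captured on 28D4C10-coated plates; compound preincubated 30 min, then 20 μM ATP for 30 min at room temperature and stopped with EDTA. Phosphotyrosine detected by anti-phosphotyrosine ELISA with peroxidase secondary and ABTS, read at 410 nm.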

EGFR [2] = biological target: T2, EGFR (Homo sapiens, UniProt P00533); experiment: Biochemical EGFR assay (ELISA); set-up: A431 cell lysate; endogenous in cells; host or cells: A431; conditions: Table 7, in vitro kinase activity, read-out: EGFr biochem IC50
Summary of the method: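 EGFR is captured from cell lysate onto SUMO1-coated plates and incubated with compound diluted in TBS. The kinase reaction is stopped after 5 min with EDTA. Substrate phosphotyrosine is detected with anti-phosphotyrosine and peroxidase-linked secondary antibody, then ABTS/H2O2 read at 410 nm (reference 630 nm).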

PDGFR [3] = biological target: T1, PDGFR; experiment: PDGF-induced BrdU incorporation assay; format: cell-based; set-up: expressed in transfected cells; host or cells: 3T3; conditions: Table 7; 3T3 cells expressing human PDGF-R, PDGF 3.8 nM; read-out: BrdU DNA syn. PDGFr IC50
Experimental: (§1) The cellular/biologic assays described herein measure the amount of DNA made in response to activation of a test kinase, which is a general measure of a proliferative response. The general procedure for this assay is as follows: a compound is introduced to cells expressing the test kinase, either naturally or recombinantly, for some period of time after which, if the test kinase is a receptor, a ligand known to activate the receptor is added. After incubation at least overnight, a DNA labeling reagent such as Bromodeoxy-uridine (BrdU) or 3H-thymidine is added. The amount of labeled DNA is detected with either an anti-BrdU antibody or by measuring radioactivity and is compared to control cells not contacted with a test compound.
PDGF-Induced BrdU Incorporation Assay
(8) 3T3 cell line genetically engineered to express human PDGF-R.
(1) Cells are seeded at 8000 cells/well in DMEM, 10% CS, 2 mM Gln in a 96 well plate. Cells are incubated overnight at 37° C. in 5% CO2.
(§2) (2) After 24 hours, the cells are washed with PBS, and then are serum starved in serum free medium (0% CS DMEM with 0.1% BSA) for 24 hours.
(§3) (3) On day 3, ligand (PDGF, 3.8 nM, prepared in DMEM with 0.1% BSA) and test compounds are added to the cells simultaneously. The negative control wells receive serum free DMEM with 0.1% BSA only; the positive control cells receive the ligand (PDGF) but no test compound. Test compounds are prepared in serum free DMEM with ligand in a 96 well plate, and serially diluted for 7 test concentrations.
(§4) (4) After 20 hours of ligand activation, diluted BrdU labeling reagent (1: 100 in DMEM, 0.1% BSA) is added and the cells are incubated with BrdU (final concentration=10 μM) for 1.5 hours.
(§5) (10) The absorbance of the samples are measured at 410 nm (in “dual wavelength” mode with a filter reading at 490 nm, as a reference wavelength) on a Dynatech ELISA plate reader.

EGFR [4] = biological target: T2, EGFR; experiment: EGF-induced BrdU incorporation assay; format: cell-based; set-up: expressed in transfected cells; host or cells: 3T3; conditions: Table 7; 3T3 cells expressing human EGF-R, EGF 2 nM; read-out: BrdU DNA syn. EGFr IC50
Experimental: as §1
EGF-Induced BrdU Incorporation Assay
(8) 3T3 cell line genetically engineered to express human EGF-R.
(1) Cells are seeded at 8000 cells/well in 10% CS, 2 mM Gin in DMEM, in a 96 well plate. Cells are incubated overnight at 37° C. in 5% CO2.
as §2
as §3, with “(EGF, 2” for “(PDGF, 3.8”, “0.1%/BSA)” for “0.1% BSA)”, “(EGF)” for “(PDGF)”
as §4, §5

T1 sequence (P09619 33-1106): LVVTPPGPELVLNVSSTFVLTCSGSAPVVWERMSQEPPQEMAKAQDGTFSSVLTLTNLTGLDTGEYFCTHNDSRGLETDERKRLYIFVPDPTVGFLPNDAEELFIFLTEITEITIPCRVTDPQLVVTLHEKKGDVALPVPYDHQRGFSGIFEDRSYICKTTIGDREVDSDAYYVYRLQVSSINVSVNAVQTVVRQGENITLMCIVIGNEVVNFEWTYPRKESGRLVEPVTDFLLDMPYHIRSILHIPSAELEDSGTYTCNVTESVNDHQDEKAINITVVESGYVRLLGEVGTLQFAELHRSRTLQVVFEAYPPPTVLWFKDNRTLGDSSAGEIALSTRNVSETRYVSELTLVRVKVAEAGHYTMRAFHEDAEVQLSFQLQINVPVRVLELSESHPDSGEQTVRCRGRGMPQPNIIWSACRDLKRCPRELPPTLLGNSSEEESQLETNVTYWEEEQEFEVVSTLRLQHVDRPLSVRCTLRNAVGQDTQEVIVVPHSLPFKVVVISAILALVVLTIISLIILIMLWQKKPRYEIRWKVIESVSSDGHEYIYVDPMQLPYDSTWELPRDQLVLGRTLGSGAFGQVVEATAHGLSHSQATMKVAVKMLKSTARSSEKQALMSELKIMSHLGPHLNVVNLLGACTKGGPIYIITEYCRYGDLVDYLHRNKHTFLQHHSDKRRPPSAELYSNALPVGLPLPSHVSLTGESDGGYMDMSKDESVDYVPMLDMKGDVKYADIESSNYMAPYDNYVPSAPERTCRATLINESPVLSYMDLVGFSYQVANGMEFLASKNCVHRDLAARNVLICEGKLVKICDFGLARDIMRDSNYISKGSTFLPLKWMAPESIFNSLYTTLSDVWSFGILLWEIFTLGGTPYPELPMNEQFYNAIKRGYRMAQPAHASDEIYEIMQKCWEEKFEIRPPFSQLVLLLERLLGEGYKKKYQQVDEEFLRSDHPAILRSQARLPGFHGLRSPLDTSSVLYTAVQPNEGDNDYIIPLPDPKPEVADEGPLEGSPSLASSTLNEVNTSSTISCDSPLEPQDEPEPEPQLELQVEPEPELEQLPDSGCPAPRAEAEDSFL
T2 sequence (P00533 25-1210): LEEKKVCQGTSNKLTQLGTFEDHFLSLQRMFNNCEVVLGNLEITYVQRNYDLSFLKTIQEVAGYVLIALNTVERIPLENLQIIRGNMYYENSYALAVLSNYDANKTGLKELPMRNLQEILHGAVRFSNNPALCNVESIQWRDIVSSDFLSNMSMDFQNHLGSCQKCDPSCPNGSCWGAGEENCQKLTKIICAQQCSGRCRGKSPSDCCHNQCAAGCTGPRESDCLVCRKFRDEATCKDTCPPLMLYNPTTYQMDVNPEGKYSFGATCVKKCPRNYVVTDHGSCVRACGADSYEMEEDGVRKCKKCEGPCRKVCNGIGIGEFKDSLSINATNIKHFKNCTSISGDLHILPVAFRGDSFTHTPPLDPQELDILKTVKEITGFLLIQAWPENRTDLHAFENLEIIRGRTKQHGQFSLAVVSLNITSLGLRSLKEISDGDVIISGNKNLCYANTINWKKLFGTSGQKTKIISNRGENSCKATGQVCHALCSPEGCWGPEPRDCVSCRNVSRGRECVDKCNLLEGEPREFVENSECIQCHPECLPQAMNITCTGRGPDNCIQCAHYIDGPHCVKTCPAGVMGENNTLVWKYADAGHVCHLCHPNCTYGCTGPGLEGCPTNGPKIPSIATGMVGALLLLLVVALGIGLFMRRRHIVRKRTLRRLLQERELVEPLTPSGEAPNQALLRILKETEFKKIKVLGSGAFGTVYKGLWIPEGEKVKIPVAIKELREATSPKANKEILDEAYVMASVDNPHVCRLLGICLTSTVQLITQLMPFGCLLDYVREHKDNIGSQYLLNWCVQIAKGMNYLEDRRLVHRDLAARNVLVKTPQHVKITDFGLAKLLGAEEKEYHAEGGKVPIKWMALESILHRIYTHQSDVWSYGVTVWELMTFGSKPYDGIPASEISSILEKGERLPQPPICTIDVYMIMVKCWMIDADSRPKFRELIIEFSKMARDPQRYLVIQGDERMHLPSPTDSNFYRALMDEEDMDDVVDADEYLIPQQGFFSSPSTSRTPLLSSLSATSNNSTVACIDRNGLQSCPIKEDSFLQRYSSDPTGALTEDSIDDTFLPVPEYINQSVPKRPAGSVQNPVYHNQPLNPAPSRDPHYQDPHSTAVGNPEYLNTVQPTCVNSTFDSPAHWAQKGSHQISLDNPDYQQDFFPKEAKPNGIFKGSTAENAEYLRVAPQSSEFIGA

| IC50 (PDGFR [1]) | IC50 (EGFR [2]) | IC50 (PDGFR [3]) | IC50 (EGFR [4]) | SMILES |
| --- | --- | --- | --- | --- |
| > 100 µM | > 100 µM | 3.3 µM | 4.7 µM | O=C1Nc2cccc(CCO)c2/C1=C\c1ccc(Br)cc1 [IN-004, 3-(4-Bromo-benzylidene)-4-(2-hydroxy-ethyl)-1,3-dihydro-indol-2-one] |
| > 100 µM | > 100 µM | 1.7 µM | 3 µM | O=C1Nc2cccc(CCO)c2/C1=C/c1ccccn1 [IN-005, 4-(2-Hydroxy-ethyl)-3-pyridin-2-ylmethylene-1,3-dihydro-indol-2-one] |
| > 100 µM | > 100 µM | 4.6 µM | 11.1 µM | Cc1cccc(/C=C2\C(=O)Nc3cccc(CCO)c32)n1 [IN-006] |
| > 100 µM | > 100 µM | 5.5 µM | 31.3 µM | COc1ccc(/C=C2\C(=O)Nc3cccc(CCO)c32)cc1-c1cccs1 [IN-008, 4-(2-Hydroxy-ethyl)-3-(4-methoxy-3-thiophen-2-yl-benzylidene)-1,3-dihydro-indol-2-one] |
| 49.1 µM | > 100 µM | 23.6 µM | 28.7 µM | Cc1[nH]c(/C=C2\C(=O)Nc3cccc(CCOc4cccc(C(C)C)c4)c32)c(C)c1CCCN(C)C [IN-023] |
| 97.5 µM | > 100 µM | 49.6 µM | > 50 µM | Cc1[nH]c(/C=C2\C(=O)Nc3cccc(CCOc4ccc(C(C)C)cc4)c32)c(C)c1CCC(=O)O [IN-024, 3-(5-{4-[2-(4-Isopropyl-phenoxy)-ethyl]-2-oxo-1,2-dihydro-indol-3-ylidenemethyl}-2,4-dimethyl-1H-pyrro-3-yl)-propionic acid] |
